Source: paper PMC6934184, “Selective DNA-PKcs inhibition extends the therapeutic index of localized radiotherapy and chemotherapy” (The Journal of Clinical Investigation, 2019)

Molecular target: T1, RPS6KA6 (RSK4) (Homo sapiens, UniProt Q9UK32)
T1 construct: purchased Thermo Fisher Scientific (Life Technologies) SelectScreen
Assay: SelectScreen Z'LYTE
Assay type: biochemical
How it was run: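 Percent values come from Thermo SelectScreen profiling of NU5455, combining activity and binding assays. CSF1R was run in Z'LYTE format at Km app ATP, and CAMK1 in Adapta format with ATP listed at 10.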

T1 sequence (Q9UK32 whole entry): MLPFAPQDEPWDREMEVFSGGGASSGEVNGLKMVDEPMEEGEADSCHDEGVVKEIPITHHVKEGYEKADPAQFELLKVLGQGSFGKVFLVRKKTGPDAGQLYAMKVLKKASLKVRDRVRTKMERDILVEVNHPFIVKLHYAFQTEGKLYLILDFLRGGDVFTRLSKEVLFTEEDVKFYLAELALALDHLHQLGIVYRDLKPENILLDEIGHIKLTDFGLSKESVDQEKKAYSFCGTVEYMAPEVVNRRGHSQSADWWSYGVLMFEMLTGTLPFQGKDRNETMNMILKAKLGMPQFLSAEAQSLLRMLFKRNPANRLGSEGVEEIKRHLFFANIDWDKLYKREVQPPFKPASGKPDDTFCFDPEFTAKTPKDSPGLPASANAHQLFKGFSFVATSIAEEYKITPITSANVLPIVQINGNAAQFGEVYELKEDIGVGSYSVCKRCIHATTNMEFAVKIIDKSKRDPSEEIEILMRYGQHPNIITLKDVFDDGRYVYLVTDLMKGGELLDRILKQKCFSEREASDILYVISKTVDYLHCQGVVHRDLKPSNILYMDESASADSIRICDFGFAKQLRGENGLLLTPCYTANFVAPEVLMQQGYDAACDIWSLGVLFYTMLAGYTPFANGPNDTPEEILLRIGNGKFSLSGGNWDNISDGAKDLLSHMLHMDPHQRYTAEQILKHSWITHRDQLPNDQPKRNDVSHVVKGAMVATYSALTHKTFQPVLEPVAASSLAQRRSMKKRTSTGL

For `CN(C(=O)CN1CCOCC1)c1ccc2sc3c(-c4cccc5c(=O)cc(N6CC7CCC(C6)O7)oc45)cccc3c2c1` [NU5455], the inhibition at 1 µM was 3.8%.
